Measured values as given in patent US6407096B1, “Benzene fused heterocyclic derivatives having thromboxane A2 receptor antagonistic activity and prostaglandin I2 Agonistic activity and application thereof” (Toray Industries, Inc., priority 1998, dated 2002).

Experiments:
[1] = test system: platelet-rich plasma (PRP), platelet aggregation induced by TXA2 agonist U-46619; experiment: Platelet aggregation inhibiting action 1 (U-46619-induced aggregation in PRP); type: cell-based; details: human PRP, aggregation induced by U-46619 (final 1 to 4 μM), compound added 1 minute before
Experimental: (§1) The blood collected from the human medial cubital vein was centrifuged at 800 rpm for 10 minutes, and the upper portion was collected as platelet-rich plasma (PRP). PRP was dispensed to small test tubes, and TXA2 agonist U-46619 was added thereto (the final concentration 1 to 4 μM) to induce platelet aggregation. The degree of platelet aggregation was measured as a change in turbidity by a platelet aggregation measuring device (Hematracer 1, Nikko Bioscience). Each compound was added 1 minute before the addition of U-46619, and a concentration at which aggregation was 50% inhibited was calculated as a IC50 value.

[2] = test system: platelet-rich plasma (PRP), platelet aggregation induced by ADP; experiment: Platelet aggregation inhibiting action 2 (ADP-induced aggregation in PRP); type: cell-based; details: human PRP, aggregation induced by ADP (final 1 to 10 μM), compound added 1 minute before
Experimental: as §1, with “was centrifuged 800 rpm” for “was centrifuged at 800 rpm”, “tubes, and ADP was added” for “tubes, and TXA2 agonist U-46619 was added”, “1 to 10 μM) to” for “1 to 4 μM) to”, “addition of ADP, and a” for “addition of U-46619, and a”, “calculated as IC50 value.” for “calculated as a IC50 value.”

[3] = biological target: T1, TXA2 receptor (Homo sapiens, UniProt P21731); experiment: TXA2 receptor binding test ([3H]SQ29548, platelet membrane fraction); details: [3H]SQ29548 10 nM, 25° C., 30 minutes, read-out: TXA2 receptor affinity Ki
T1 construct: The finally obtained sediment was used as a platelet membrane fraction; from tissue; host or cells: human platelets (membrane fraction from venous blood)
T1 sequence (P21731 1-343): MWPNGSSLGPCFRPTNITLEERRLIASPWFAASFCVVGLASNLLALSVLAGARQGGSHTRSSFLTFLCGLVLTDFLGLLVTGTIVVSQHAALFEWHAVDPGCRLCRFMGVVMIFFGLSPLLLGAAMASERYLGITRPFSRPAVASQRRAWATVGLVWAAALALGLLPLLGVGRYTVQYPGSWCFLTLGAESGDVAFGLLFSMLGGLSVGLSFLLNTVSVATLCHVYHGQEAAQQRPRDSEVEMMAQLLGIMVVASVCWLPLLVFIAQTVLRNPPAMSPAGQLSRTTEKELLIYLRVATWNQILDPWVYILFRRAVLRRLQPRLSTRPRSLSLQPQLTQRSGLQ
Experimental: The blood collected from the human antebrachial vein and 1/10 volume of ACD solution (85 mM trisodium citrate, 65 mM citric acid, 2% glucose) were mixed, and 8 ml of the mixture was dispensed to each of Spitz tubes. The platelet-rich plasma obtained by centrifugation at room temperature and 200×g for 10 minutes was further centrifuged at 1000×g for 15 minutes to obtain platelets. The thus-obtained platelets were centrifugally washed with a cleaning buffer (115 mM sodium chloride, 4.3 mM potassium dihydrogen phosphate, 5.5 mM glucose, 1 mM disodium EDTA, 10 μM […], pH 6.5), and 1 ml of a dissolution buffer (10 mM tris(hydroxymethyl)aminomethane, 5 mM magnesium chloride, 2 mM disodium EDTA, pH 7.4) was added to-the platelets, followed by three times of freezing in liquid nitrogen and melting at room temperature to crush the platelets. The crushed platelets were cleaned by three times of ultracentrifugation (40000×g, 20 minutes each) using […] ice-cold tris-hydrochloric acid buffer. The finally obtained sediment was used as a platelet membrane fraction.
As a TXA2 receptor ligand, tritium-labeled SQ29548 ([^3H]SQ29548) was used. As a solvent for receptor binding reaction, a 50 mM tris-hydrochloric acid buffer ([…] magnesium chloride, pH 7.4) was used. A saturation test was conducted by reaction of [^3H]SQ29548 (100 μl) at a final concentration of 3 to 100 nM and 0.1 mg protein/ml of platelet membrane fraction suspension (100 μl) at 25° C. for 30 minutes under shaking. […] Then, radioactivity was measured by a scintillation counter. Nonspecific binding to a substance other than the receptor was determined by reaction in the presence of SQ29548 at a final concentration of […]. In the competitive experiment, IC50 value and Hill coefficient of each of the test compounds were determined by pseudo-Hill plots, and the receptor dissociation constant (Ki value) was determined from the IC50 value and the receptor dissociation constant (Kd value) of [^3H]SQ29548, which was obtained by saturation experiment, according to the following equation: […]

[4] = biological target: T2, PGI2 receptor (Homo sapiens, UniProt P43119); experiment: PGI2 receptor binding experiment (tritium-labeled compound A, platelet membrane fraction); details: tritium-labeled compound A 10 nM, 4° C., 60 minutes, read-out: PGI2 receptor affinity Ki
T2 construct: 0.1 mg protein/ml of platelet membrane fraction suspension (100 μl) at 4° C. for 60 minutes; from tissue; host or cells: platelets (membrane fraction)
Experimental: As a PGI2 receptor ligand, tritium-labeled (1R, 2R, 3aS, 8bS)-2,3,3a,8b-tetrahydro-2-hydroxy-1-[(E)-(3S, 4S)-3-hydroxy-4-methyl-1-octene-6-ynyl]-1H-cyclopenta [b]benzofuran-4-butanoic acid (compound A) was used. A saturation test was conducted by reaction of compound A (100 μl) at a final concentration of 3 to 100 nM and 0.1 mg protein/ml of platelet membrane fraction suspension (100 μl) at 4° C. for 60 minutes under shaking. Competitive experiment was carried out by reaction of a mixed solution (100 μl) of a test compound dissolved in an appropriate solvent and diluted and compound A at a final concentration of 10 nM, and 0.1 mg protein/ml of platelet membrane fraction suspension (100 μl) at 4° C. for 60 minutes under shaking. After the completion of reaction, the membrane fraction was recovered on a glass filter by a cell harvester, and washed with an ice-cold buffer. Then, radioactivity was measured by a scintillation counter. Nonspecific binding to a substance other than the receptor was determined by reaction in the presence of beraprost sodium at a final concentration of […]. In the competitive experiment, IC50 value and Hill coefficient of each of test compounds were determined by pseudo-Hill plots, and the receptor dissociation constant (Ki value) was determined from the IC50 value and the receptor dissociation constant (Kd value) of compound A, which was obtained by saturation experiment, according to the following equation:
Ki value=IC50 value/[1+(radioactive ligand concentration/Kd value)]

T2 sequence (P43119 whole entry): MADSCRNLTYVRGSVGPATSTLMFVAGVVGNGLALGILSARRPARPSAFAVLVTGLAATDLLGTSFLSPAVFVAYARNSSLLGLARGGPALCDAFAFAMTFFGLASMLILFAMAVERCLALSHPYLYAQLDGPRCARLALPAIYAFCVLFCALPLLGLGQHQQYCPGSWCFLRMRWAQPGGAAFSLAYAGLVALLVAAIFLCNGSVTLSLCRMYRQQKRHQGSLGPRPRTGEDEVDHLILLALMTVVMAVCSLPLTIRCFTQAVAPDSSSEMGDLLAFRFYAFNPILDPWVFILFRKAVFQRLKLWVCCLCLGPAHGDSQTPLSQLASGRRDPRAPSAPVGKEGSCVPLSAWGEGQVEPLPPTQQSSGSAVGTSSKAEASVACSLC

| Compound | IC50 [1] [nM] | IC50 [2] [nM] | melting point [°C] | Ki [3] [nM] | Ki [4] [nM] |
| --- | --- | --- | --- | --- | --- |
| O=C(O)COc1cccc2c1OCCN2CCSC(c1ccccc1)c1ccccc1 [Example 20, (4-(2-(diphenylmethylthio)ethyl)-3,4-dihydro-2H-1,4-benzoxazin-8-yloxy)acetic acid] | 1300 | 2000 | 172.5 | – | – |
| CC(SCCN1C(=O)COc2c(CCC(=O)O)cccc21)(c1ccccc1)c1ccccc1 [Example 33, 3-(4-(2-(1,1-diphenylethylthio)ethyl)-3-oxo-3,4-dihydro-2H-1,4-benzoxazin-8-yl)propionic acid] | – | – | 110.1 | – | – |
| CC(SCCN1CCOc2c(OCC(=O)O)cccc21)(c1ccsc1)c1ccsc1 [Example 27] | – | – | 149 | – | – |
| CC(SCCN1CCOc2c(OCC(=O)O)cccc21)(c1ccccc1)c1ccccc1 [Example 21, (4-(2-(1,1-diphenylethylthio)ethyl)-3,4-dihydro-2H-1,4-benzoxazin-8-yloxy)acetic acid] | 550 | 1800 | 161 to 161.5 | 50 | 430 |
| O=C(O)COc1cccc2c1OCC(=O)N2CC(=O)NC(c1ccccc1)c1ccccc1 [Example 32, (4-((diphenylmethylcarbamoyl)methyl)-3-oxo-3,4-dihydro-2H-1,4-benzoxazin-8-yloxy)acetic acid] | – | – | 232 to 234 | – | – |
| CC(OCCN1CCOc2c(OCC(=O)O)cccc21)(c1ccccc1)c1ccccc1 [Example 29, (4-(2-(1,1-diphenylethoxy)ethyl)-3,4-dihydro-2H-1,4-benzoxazin-8-yloxy)acetic acid] | 5500 | 16000 | 108 | – | – |
| CC(SCCN1CCOc2c(OCC(=O)[O-])cccc21)(c1ccccc1)c1ccccc1.[Na+] | – | – | 110 | – | – |
| COC(=O)COc1cccc2c1OCC(=O)N2CC(=O)NC(c1ccccc1)c1ccccc1 [Example 12, Methyl (4-((diphenylmethylcarbamoyl)methyl)-3-oxo-3,4-dihydro-2H-1,4-benzoxazin-8-yloxy)acetate] | – | – | 183 to 184 | – | – |
| CC(CSCCN1CCOc2c(OCC(=O)O)cccc21)(c1ccccc1)c1ccccc1 [Example 26, (4-(2-(2,2-diphenylpropylthio)ethyl)-3,4-dihydro-2H-1,4-benzoxazin-8-yloxy)acetic acid] | – | – | 138 to 139 | – | – |
| O=C(O)COc1cccc2c1OCC2CCSC(c1ccccc1)c1ccccc1 (stereo not shown) [Example 36, (3-(2-(diphenylmethylthio)ethyl)-2,3-dihydrobenzofuran-7-yloxy)acetic acid] | 550 | 950 | 88 to 89 | 70 | 230 |
| COC(=O)COc1cccc2c1OCCN2CCSC(c1ccccc1)c1ccccc1 | – | – | 94 to 95 | – | – |
| CC(C)(SCCN1CCOc2c(OCC(=O)O)cccc21)c1ccccc1 [Example 24, (4-(2-(1-methyl-1-phenylethylthio)ethyl)-3,4-dihydro-2H-1,4-benzoxazin-8-yloxy)acetic acid] | – | – | 114 | – | – |
| O=C(O)COc1cccc2c1OCCN2CCSCc1ccccc1 [Example 25, (4-(2-(benzylthio)ethyl)-3,4-dihydro-2H-1,4-benzoxazin-8-yloxy) acetic acid] | – | – | 127 to 131 | – | – |
| COC(=O)COc1cccc2c1OCCN2CCSC(C)(c1ccccc1)c1ccccc1 [Example 2, Methyl (4-(2-(1,1-diphenylethylthio)ethyl)-3,4-dihydro-2H-1,4-benzoxazin-8-yloxy)acetate] | – | – | 101 | – | – |
| CC(SCCN1C(=O)COc2c(OCC(=O)O)cccc21)(c1ccccc1)c1ccccc1 [Example 31, (4-(2-(1,1-diphenylethylthio)ethyl)-3-oxo-3,4-dihydro-2H-1,4-benzoxazin-8-yloxy)acetic acid] | – | – | 106 | – | – |
| CC(SCCC1COc2c(OCC(=O)O)cccc21)(c1ccccc1)c1ccccc1 (stereo not shown) [Example 37, (3-(2-(1,1-diphenylethylthio)ethyl)-2,3-dihydrobenzofuran-7-yloxy)acetic acid] | 490 | 1800 | 65 to 67 | – | – |
| CC(SCCN1CCOc2c(OCC(=O)O)cccc21)(c1ccc(F)cc1)c1ccc(F)cc1 [Example 23, (4-(2-(1,1-bis-(4-fluorophenyl)ethylthio)-ethyl)-3,4-dihydro-2H-1,4-benzoxazin-8-yloxy)acetic acid] | – | – | 142 to 143 | – | – |
| CC(SCCN1CCCc2c(OCC(=O)O)cccc21)(c1ccccc1)c1ccccc1 [Example 34, (1-(2-(1,1-diphenylethylthio)ethyl)-1,2,3,4-tetrahydroquinolin-5-yloxy)acetic acid] | 590 | 1300 | 150.5 to 152 | 120 | 520 |
| O=C(O)COc1cccc2c1OCCN2CCOC(c1ccccc1)c1ccccc1 [Example 28, (4-(2-(diphenylmethoxy)ethyl)-3,4-dihydro-2H-1,4-benzoxazin-8-yloxy)acetic acid] | 5700 | 16000 | 112 to 113 | – | – |
| O=C(O)COc1cccc2c1OCCN2CCSC(c1ccccc1)(c1ccccc1)C(F)(F)F [Example 22, (4-(2-(1,1-diphenyl-2,2,2-trifluoroethylthio)ethyl)-3,4-dihydro-2H-1,4-benzoxazin-8-yloxy)acetic acid] | – | – | 140 to 140.5 | – | – |
